Data reported in paper PMC5515969, “Effects of 31 FDA approved small-molecule kinase inhibitors on isolated rat liver mitochondria” (Archives of Toxicology, 2016).
Read-outs that look alike come from different tables or passages of the source.

How the values were obtained:
[1] = tested on: isolated rat liver mitochondria; experiment: Mitochondrial swelling (absorbance at 535 nm); format: biochemical; settings: for Swelling 1XCmax / Swelling 2.5XCmax / Swelling 5XCmax / Swelling 10XCmax / Swelling 20XCmax / Swelling 30XCmax / Swelling 50XCmax / Swelling 100XCmax: difference in signal between KI and DMSO treated samples at the end of experiments; on Swelling 5XCmax: key: 0 indicates that the drug had no effects (negative)
RCC III = RCC III activity in submitochondrial particles; format: biochemical, rat; set-up: key to RCC III at 100XCmax: activity relative to DMSO-treated controls (control set as 1 = 100%); settings: for RCC activity III: 15 min, DMSO-treated = 100
Summary of the method: (§1)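 Kinase inhibitors were preincubated 15 min with submitochondrial particles (1 mg/ml) before complex activities were measured. RCC I was the rotenone-sensitive portion (activity without minus with rotenone). RCC I/V was read at 340 nm and RCC II at 600 nm every 1 min for 6 min. RCC III and IV were read at 550 nm every 10 s for 2 min. Activities are normalized to DMSO controls set as 1.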

[2] = tested on: isolated rat liver mitochondria; experiment: Mitochondrial oxygen consumption (glutamate/malate or succinate driven, state 4 and state 3); format: biochemical; settings: for State 3 respiration driven by glutamate/malate at 1XCmax / State 3 respiration driven by succinate at 1XCmax / State 4 respiration driven by glutamate/malate at 1XCmax / State 4 respiration driven by succinate at 1XCmax / State 3 respiration driven by glutamate/malate at 2.5XCmax / State 3 respiration driven by succinate at 2.5XCmax / State 4 respiration driven by glutamate/malate at 2.5XCmax / State 4 respiration driven by succinate at 2.5XCmax / State 3 respiration driven by glutamate/malate at 5XCmax / State 3 respiration driven by succinate at 5XCmax / State 4 respiration driven by glutamate/malate at 5XCmax / State 4 respiration driven by succinate at 5XCmax / State 3 respiration driven by glutamate/malate at 10XCmax / State 3 respiration driven by succinate at 10XCmax / State 4 respiration driven by glutamate/malate at 10XCmax / State 4 respiration driven by succinate at 10XCmax / State 3 respiration driven by glutamate/malate at 20XCmax / State 3 respiration driven by succinate at 20XCmax / State 4 respiration driven by glutamate/malate at 20XCmax / State 4 respiration driven by succinate at 20XCmax / State 3 respiration driven by glutamate/malate at 30XCmax / State 3 respiration driven by succinate at 30XCmax / State 4 respiration driven by glutamate/malate at 30XCmax / State 4 respiration driven by succinate at 30XCmax / State 3 respiration driven by glutamate/malate at 50XCmax / State 3 respiration driven by succinate at 50XCmax / State 4 respiration driven by glutamate/malate at 50XCmax / State 4 respiration driven by succinate at 50XCmax / State 3 respiration driven by glutamate/malate at 100XCmax / State 3 respiration driven by succinate at 100XCmax / State 4 respiration driven by glutamate/malate at 100XCmax / State 4 respiration driven by succinate at 100XCmax: DMSO treated samples set as 1; on State 3 respiration driven by succinate at 10XCmax: key: 0 indicates that the drug had no effects (negative); on State 3 respiration driven by succinate at 1XCmax: key: 0 indicates that the drug had no effects (negative)
Summary of the method: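 Rat liver mitochondria (1 mg/ml protein) exposed 5 min to kinase inhibitors in 0.1% DMSO, then O2 consumption measured by Clark-type electrode with glutamate/malate or succinate (state 4), ADP added after 3 min (state 3). Rates normalized to 0.1% DMSO controls set to 1.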

[3] = cited from earlier work
[4] = cited from earlier work; remark: listed apart in the source
RCC IV = RCC IV activity in submitochondrial particles; format: biochemical, rat; set-up: key to RCC IV at 50XCmax / RCC IV at 100XCmax: activity relative to DMSO-treated controls (control set as 1 = 100%); settings: for RCC IV at 50XCmax: in %; for RCC activity IV: 15 min, DMSO-treated = 100
Summary of the method: as §1

[5] = tested on: isolated rat liver mitochondria; experiment: Mitochondrial inner membrane potential (MMP), Rhodamine 123; format: biochemical; settings: difference in signal between KI and DMSO treated samples at the end of experiments
Description: Fig. 3 KI effects on mitochondrial inner membrane potential (MMP). […] In a, c, data are means and standard derivations from three separate experiments. *p < 0.05 as compared to DMSO-treated samples at the end of experiments. In b, data are means of two independent experiments

[6] = tested on: isolated rat liver mitochondria; settings: for Cytochrome c release 1XCmax / Cytochrome c release 2.5XCmax / Cytochrome c release 5XCmax / Cytochrome c release 10XCmax / Cytochrome c release 20XCmax / Cytochrome c release 30XCmax / Cytochrome c release 50XCmax / Cytochrome c release 100XCmax: positive control alamethicin treated samples
[7] = tested on: isolated rat liver mitochondria; experiment: Mitochondrial ROS production (CM-H2DCFDA); settings: DMSO treated samples set as 1

CC(=O)Nc1cccc(-n2c(=O)n(C3CC3)c(=O)c3c(Nc4ccc(I)cc4F)n(C)c(=O)c(C)c32)c1 [Trametinib]
Swelling 1XCmax [1]: 0 | Swelling 2.5XCmax [1]: 0 | Swelling 5XCmax [1]: 0 | Swelling 10XCmax [1]: 0 | Swelling 20XCmax [1]: 0 | Swelling 30XCmax [1]: 0 | Swelling 50XCmax [1]: 0 | Swelling 100XCmax [1]: 0 | RCC III at 100XCmax (RCC III; 100XCmax): 0 | State 3 respiration driven by glutamate/malate at 1XCmax [2]: 0 | State 3 respiration driven by succinate at 1XCmax [2]: 0 | State 4 respiration driven by glutamate/malate at 1XCmax [2]: 0 | State 4 respiration driven by succinate at 1XCmax [2]: 0 | State 3 respiration driven by glutamate/malate at 2.5XCmax [2]: 0 | State 3 respiration driven by succinate at 2.5XCmax [2]: 0 | State 4 respiration driven by glutamate/malate at 2.5XCmax [2]: 0 | State 4 respiration driven by succinate at 2.5XCmax [2]: 0 | State 3 respiration driven by glutamate/malate at 5XCmax [2]: 0 | State 3 respiration driven by succinate at 5XCmax [2]: 0 | State 4 respiration driven by glutamate/malate at 5XCmax [2]: 0 | State 4 respiration driven by succinate at 5XCmax [2]: 0 | State 3 respiration driven by glutamate/malate at 10XCmax [2]: 0 | State 3 respiration driven by succinate at 10XCmax [2]: 0 | State 4 respiration driven by glutamate/malate at 10XCmax [2]: 0 | State 4 respiration driven by succinate at 10XCmax [2]: 0 | State 3 respiration driven by glutamate/malate at 20XCmax [2]: 0 | State 3 respiration driven by succinate at 20XCmax [2]: 0 | State 4 respiration driven by glutamate/malate at 20XCmax [2]: 0 | State 4 respiration driven by succinate at 20XCmax [2]: 0 | State 3 respiration driven by glutamate/malate at 30XCmax [2]: 0 | State 3 respiration driven by succinate at 30XCmax [2]: 0 | State 4 respiration driven by glutamate/malate at 30XCmax [2]: 0 | State 4 respiration driven by succinate at 30XCmax [2]: 0 | State 3 respiration driven by glutamate/malate at 50XCmax [2]: 0 | State 3 respiration driven by succinate at 50XCmax [2]: 0 | State 4 respiration driven by glutamate/malate at 50XCmax [2]: 0 | State 4 respiration driven by succinate at 50XCmax [2]: 0 | State 3 respiration driven by glutamate/malate at 100XCmax [2]: 0 | State 3 respiration driven by succinate at 100XCmax [2]: 0 | State 4 respiration driven by glutamate/malate at 100XCmax [2]: 0 | State 4 respiration driven by succinate at 100XCmax [2]: 0 | Cmax ([3]; read-out: Cmax at µM, human therapeutic maximal blood concentration, ref product labeling): 0.04 µM | DILI potential (based on labeling) ([4]; 1 DILI positive, 0 negative according to labeling, ref product labeling): 0 | DILI potential (based on labeling) ([4]; ref FDA product labeling): 0 | RCC IV at 50XCmax (RCC IV; DMSO treated samples set as 1): 0 | MMP measured by Rhodamine 123 at 1XCmax [5]: 0 | MMP measured by Rhodamine 123 at 2.5XCmax [5]: 0 | MMP measured by Rhodamine 123 at 5XCmax [5]: 0 | MMP measured by Rhodamine 123 at 10XCmax [5]: 0 | MMP measured by Rhodamine 123 at 20XCmax [5]: 0 | MMP measured by Rhodamine 123 at 30XCmax [5]: 0 | MMP measured by Rhodamine 123 at 50XCmax [5]: 0 | MMP measured by Rhodamine 123 at 100XCmax [5]: 0 | Cytochrome c release 1XCmax [6]: 0 | Cytochrome c release 2.5XCmax [6]: 0 | Cytochrome c release 5XCmax [6]: 0 | Cytochrome c release 10XCmax [6]: 0 | Cytochrome c release 20XCmax [6]: 0 | Cytochrome c release 30XCmax [6]: 0 | Cytochrome c release 50XCmax [6]: 0 | Cytochrome c release 100XCmax [6]: 0 | ROS measured by CM-H2DCFDA at 1XCmax [7]: 0 | ROS measured by CM-H2DCFDA at 2.5XCmax [7]: 0 | ROS measured by CM-H2DCFDA at 5XCmax [7]: 0 | ROS measured by CM-H2DCFDA at 10XCmax [7]: 0 | ROS measured by CM-H2DCFDA at 20XCmax [7]: 0 | ROS measured by CM-H2DCFDA at 30XCmax [7]: 0 | ROS measured by CM-H2DCFDA at 50XCmax [7]: 0 | ROS measured by CM-H2DCFDA at 100XCmax [7]: 0

COc1cc2c(Nc3ccc(Br)cc3F)ncnc2cc1OCC1CCN(C)CC1 [Vandetanib]
lowest concentration causing mitochondrial swelling [1]: 100 fold Cmax | Swelling 1XCmax [1]: 0 | Swelling 2.5XCmax [1]: 0 | Swelling 5XCmax [1]: 0 | Swelling 10XCmax [1]: 0 | Swelling 20XCmax [1]: 0 | Swelling 30XCmax [1]: 0 | Swelling 50XCmax [1]: 0 | Swelling 100XCmax [1]: 0.22±0.06 | effect on mitochondrial swelling ([1]; up to 100-fold Cmax or highest testable concentration, 25 µM calcium chloride): significant mitochondrial swelling | RCC activity III (RCC III; 50-fold Cmax): 99.20 ± 5.61 % of control | RCC activity III (RCC III; 100-fold Cmax): 91.23 ± 6.54 % of control | State 3 respiration driven by glutamate/malate at 1XCmax [2]: 0 | State 3 respiration driven by succinate at 1XCmax [2]: 0 | State 4 respiration driven by glutamate/malate at 1XCmax [2]: 0 | State 4 respiration driven by succinate at 1XCmax [2]: 0 | State 3 respiration driven by glutamate/malate at 2.5XCmax [2]: 0 | State 3 respiration driven by succinate at 2.5XCmax [2]: 0 | State 4 respiration driven by glutamate/malate at 2.5XCmax [2]: 0 | State 4 respiration driven by succinate at 2.5XCmax [2]: 0 | State 3 respiration driven by glutamate/malate at 5XCmax [2]: 0 | State 3 respiration driven by succinate at 5XCmax [2]: 0 | State 4 respiration driven by glutamate/malate at 5XCmax [2]: 0 | State 4 respiration driven by succinate at 5XCmax [2]: 0 | State 3 respiration driven by glutamate/malate at 10XCmax [2]: 0 | State 3 respiration driven by succinate at 10XCmax [2]: 0 | State 4 respiration driven by glutamate/malate at 10XCmax [2]: 0 | State 4 respiration driven by succinate at 10XCmax [2]: 0 | State 3 respiration driven by glutamate/malate at 20XCmax [2]: 0 | State 3 respiration driven by succinate at 20XCmax [2]: 0 | State 4 respiration driven by glutamate/malate at 20XCmax [2]: 0 | State 4 respiration driven by succinate at 20XCmax [2]: 0 | State 3 respiration driven by glutamate/malate at 30XCmax [2]: 0 | State 3 respiration driven by succinate at 30XCmax [2]: 0 | State 4 respiration driven by glutamate/malate at 30XCmax [2]: 0 | State 4 respiration driven by succinate at 30XCmax [2]: 0 | State 3 respiration driven by glutamate/malate at 50XCmax [2]: 0 | State 3 respiration driven by succinate at 50XCmax [2]: 0 | State 4 respiration driven by glutamate/malate at 50XCmax [2]: 0 | State 4 respiration driven by succinate at 50XCmax [2]: 0 | State 3 respiration driven by glutamate/malate at 100XCmax [2]: 0 | State 3 respiration driven by succinate at 100XCmax [2]: 0 | State 4 respiration driven by glutamate/malate at 100XCmax [2]: 0 | State 4 respiration driven by succinate at 100XCmax [2]: 0 | effect on mitochondrial oxygen consumption ([2]; up to 100-fold Cmax or highest testable concentration): no effects | Cmax ([3]; human therapeutic Cmax at FDA recommended dosages, ref product labeling and drug approval packages at the official FDA website): 1.8 µM | Cmax ([3]; read-out: Cmax at µM, therapeutic maximal blood concentration, ref product labeling): 1.8 µM | Cmax ([3]; therapeutic maximal blood concentration, ref product labeling): 857 ng/mL | DILI potential (based on labeling) ([4]; 1 = DILI positive, 0 = negative, ref product labeling): 0 | DILI potential (based on labeling) ([4]; ref FDA product labeling): 0 | RCC activity IV (RCC IV; 50-fold Cmax): 100.56 ± 2.67 % of control | RCC IV at 50XCmax (RCC IV; relative to DMSO treated samples): 0 | RCC activity IV (RCC IV; 100-fold Cmax): 103.06 ± 12.96 % of control | MMP measured by Rhodamine 123 at 1XCmax [5]: 0 | MMP measured by Rhodamine 123 at 2.5XCmax [5]: 0 | MMP measured by Rhodamine 123 at 5XCmax [5]: 0 | MMP measured by Rhodamine 123 at 10XCmax [5]: 0 | MMP measured by Rhodamine 123 at 20XCmax [5]: 0 | MMP measured by Rhodamine 123 at 30XCmax [5]: 0 | MMP measured by Rhodamine 123 at 50XCmax [5]: 0 | MMP measured by Rhodamine 123 at 100XCmax [5]: 0 | Cytochrome c release 1XCmax [6]: 0 | Cytochrome c release 2.5XCmax [6]: 0 | Cytochrome c release 5XCmax [6]: 0 | Cytochrome c release 10XCmax [6]: 0 | Cytochrome c release 20XCmax [6]: 0 | Cytochrome c release 30XCmax [6]: 0 | Cytochrome c release 50XCmax [6]: 0 | Cytochrome c release 100XCmax [6]: 18.47±3.80 percentage of the positive control group | lowest concentration causing cytochrome c release ([6]; rat, 30 min, pH 7.4): 100 fold Cmax | ROS measured by CM-H2DCFDA at 1XCmax [7]: 0 | ROS measured by CM-H2DCFDA at 2.5XCmax [7]: 0 | ROS measured by CM-H2DCFDA at 5XCmax [7]: 0 | ROS measured by CM-H2DCFDA at 10XCmax [7]: 0 | ROS measured by CM-H2DCFDA at 20XCmax [7]: 0 | ROS measured by CM-H2DCFDA at 30XCmax [7]: 0 | ROS measured by CM-H2DCFDA at 50XCmax [7]: 0 | ROS measured by CM-H2DCFDA at 100XCmax [7]: 0
